Values quoted from earlier work as cited in patent publication US20250066691A1, “SOLVENT-BASED DETERGENT COMPOSITIONS AND METHODS FOR HYDROPHOBIC SOIL REMOVAL” (ECOLAB USA INC., priority 2023, published 2025).
Structures can show the parent of a compound that is named as a salt.

Conditions: obtained from PubChem

| Structure (SMILES) | Topological Polar Surface Area (Å^2) | LogP |
| --- | --- | --- |
| CCCCCCOCCOCCO [Diethylene glycol monohexyl ether] | 38.7 Å^2 |  |
| CCCCC(CC)COC(=O)[C@H](C)O (stereo partly drawn) [2-Ethylhexyl Lactate, 2-Ethylhexyl L-Lactate] | 46.5 Å^2 | 3 |
| CCCCC(CC)COCCO (stereo not shown) [2-2(2-Ethylhexyloxy)ethanol] | 29.5 Å^2 | 2.5 |
| CCOC(=O)CC(O)(CC(=O)OCC)C(=O)OCC [Triethyl Citrate] | 99.1 Å^2 | 0.1 |
| CC(C)COC(=O)CCCCC(=O)OCC(C)C [Diisobutyl Adipate] | 52.6 Å^2 | 3.2 |
| CCCCOC(C)COC(C)COC(C)CO (stereo not shown) [Tripropylene glycol butyl ether] | 47.9 Å^2 | 2.9 |
| CCCCCCCC(=O)O [Octanoic acid] | 37.3 Å^2 |  |
| CC(=O)OCC(COC(C)=O)OC(C)=O [Glycerol Triacetate] | 78.9 Å^2 | 0.2 |
| C=C(C)[C@H]1CC=C(C)CC1 [Limonene] | 0 Å^2 | 3.4 |
| CCCCCCO [Hexanol] | 20.2 Å^2 |  |
| CCOC(=O)C(C)O (stereo not shown) [Ethyl Lactate] | 46.5 Å^2 | 0.2 |
| Cc1ccccc1 [Toluene] | 0 Å^2 |  |
| CC(O)COc1ccccc1 (stereo not shown) [Propylene glycol phenyl ether] | 38.7 Å^2 | 1.7 |
| CCCCCCCCCCCCO [Dodecanol (Lauryl Alcohol), Dodecanol] | 20.2 Å^2 | 5.1 |
| OCc1ccccc1 [Benzyl Alcohol] | 20.2 Å^2 |  |
